According to patent US20170305857A1, “N-ACYLPIPERIDINE ETHER TROPOMYOSIN-RELATED KINASE INHIBITORS” (Pfizer Limited, priority 2014, published 2017):

target: T1, recombinant His-tagged cytoplasmic domains of TRKA receptor (NTRK1, PV3144, aa 441-796) (Homo sapiens, UniProt P04629); assay: Isolated TRK enzyme assay (HTRF KinEASE-TK, PV3144 TrkA enzyme assay); assay type: biochemical; conditions: 4 nM enzyme, 40 uM ATP, 35 min, arithmetic mean where more than one reading
T1 construct: aa 441-796; His; purchased Invitrogen PV3144
T1 sequence (P04629 441-796): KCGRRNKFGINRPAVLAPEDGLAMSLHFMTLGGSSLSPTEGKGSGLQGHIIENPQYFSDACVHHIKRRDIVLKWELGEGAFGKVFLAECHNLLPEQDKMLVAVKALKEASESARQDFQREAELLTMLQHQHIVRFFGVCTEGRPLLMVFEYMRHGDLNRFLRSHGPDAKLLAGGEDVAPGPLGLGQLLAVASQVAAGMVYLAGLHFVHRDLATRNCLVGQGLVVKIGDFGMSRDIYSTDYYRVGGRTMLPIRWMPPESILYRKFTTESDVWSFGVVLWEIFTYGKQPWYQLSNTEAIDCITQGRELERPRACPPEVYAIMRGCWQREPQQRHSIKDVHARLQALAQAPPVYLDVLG
Experimental: Isolated TRK Enzyme assays use the HTRF KinEASE-TK kit (Cisbio Cat #62TK0PEJ) with recombinant His-tagged cytoplasmic domains of TRKA receptor sourced from Invitrogen (see table below). This activity-assay measures the phosphorylation of tyrosine residues within a substrate from the HTRF kit which has been validated by Cisbio for a variety of tyrosine kinases including the TRK receptors.
0.5 mM stock solutions of test compounds are prepared and serially diluted in 100% DMSO. […] Greiner low volume black plates containing 0.2 ul of serially diluted compound, standard and HPE/ZPE are created using the Bravo nanolitre dispenser.
1× enzyme buffer is prepared from 5× Enzymatic Buffer from the Cisbio KinEASE TK kit using MilliQ water. The buffer is then supplemented with 10 mM MgCl and 2 mM DTT (both from Sigma).
Following this preactivation step, 5 ul/well of enzyme+ATP mix is added using a Multidrop Micro to the assay plate, spotted with 0.2 ul 100% DMSO compound. This is left for 20 mins at room temperature before adding 5 ul of 2 uM TK-substrate-Biotin (from the Cisbio kit) diluted in 1× enzyme buffer (1 uM FAC) using the Multidrop Micro. The reaction is incubated at room temperature for the optimized assay reaction time (see table).
After the Detection Reagent addition, plates are covered and incubated at room temperature for 60 minutes. […] Test compound data are expressed as percentage inhibition defined by HPE and ZPE values for each plate. Percentage inhibition in the presence of test compound is plotted against compound concentration on a log scale to determine an IC50 from the resultant sigmoid curve.
Where more than one reading was taken, the arithmetic mean is presented.

IC50 | SMILES
10 nM | Cc1n[nH]c(C)c1-c1cnc(OC2CCN(C(=O)Cc3ccc(OC(F)(F)F)cc3)CC2)c(C(N)=O)c1 [Example 59, 5-(3,5-dimethyl-1H-pyrazol-4-yl)-2-[(1-{[4-(trifluoromethoxy)phenyl]acetyl}piperidin-4-yl)oxy]pyridine-3-carboxamide]
1.2 nM | Cn1cc(-c2cnc(O[C@H]3CCN(C(=O)Cc4ccc(OC(F)(F)F)cc4)C[C@H]3F)c(C(N)=O)c2)cn1 [Example 4, 2-{[(3R,4S)-3-fluoro-1-{[4-(trifluoromethoxy)phenyl]acetyl}piperidin-4-yl]oxy}-5-(1-methyl-1H-pyrazol-4-yl)pyridine-3-carboxamide]
1.4 nM | Cn1cnc(-c2cnc(O[C@@H]3CCN(C(=O)Cc4ccc(OC5CC5)cc4)C[C@@H]3F)c(C(N)=O)c2)c1 [Example 7, 2-{[(3S,4R)-1-{[4-(cyclopropyloxy)phenyl]acetyl}-3-fluoropiperidin-4-yl]oxy}-5-(1-methyl-1H-imidazol-4-yl)pyridine-3-carboxamide]
16.6 nM | CC(C)(O)Cn1cc(-c2cnc(O[C@H]3CCN(C(=O)Cc4ccc(OC5CC5)cn4)C[C@@H]3F)c(C(N)=O)c2)cn1 [Example 163, 2-{[(3S,4S)-1-{[5-(cyclopropyloxy)pyridin-2-yl]acetyl}-3-fluoropiperidin-4-yl]oxy}-5-[1-(2-hydroxy-2-methylpropyl)-1H-pyrazol-4-yl]pyridine-3-carboxamide]
5.5 nM | NC(=O)c1cc(-c2cnn(CCO)c2)ccc1OC1CCN(C(=O)Cc2ccc(OC(F)(F)F)cc2)CC1 [Example 58, 5-[1-(2-hydroxyethyl)-1H-pyrazol-4-yl]-2-[(1-{[4-(trifluoromethoxy)phenyl]acetyl}piperidin-4-yl)oxy]benzamide]
7.12 nM | NC(=O)c1cc(-c2c[nH]c(C(F)(F)F)n2)cnc1O[C@@H]1CCN(C(=O)Cc2ccc(OC(F)(F)F)cc2)C[C@@H]1F [Example 183, 2-{[(3S,4R)-3-fluoro-1-{[4-(trifluoromethoxy)phenyl]acetyl}piperidin-4-yl]oxy}-5-[2-(trifluoromethyl)-1H-imidazol-4-yl]pyridine-3-carboxamide]
3.8 nM | Cn1cnc(-c2ccc(O[C@@H]3CCN(C(=O)Cc4ccc(OC5CC5)cc4)C[C@H]3F)c(C(N)=O)c2)c1 (racemic) [Example 44]
5.3 nM | NC(=O)c1cc(-c2c[nH]nn2)ccc1OC1CCN(C(=O)Cc2ccc(OC(F)(F)F)cc2)CC1 [Example 136, 5-(1H-1,2,3-triazol-4-yl)-2-((1-(2-(4-(trifluoromethoxy)phenyl)acetyl)piperidin-4-yl)oxy)benzamide]
4.5 nM | Cn1cc(-c2ccc(OC3CCN(C(=O)Cc4ccc(OC(F)(F)F)c(F)c4)CC3)c(C(N)=O)c2)cn1 [Example 111, 2-[(1-{[3-fluoro-4-(trifluoromethoxy)phenyl]acetyl}piperidin-4-yl)oxy]-5-(1-methyl-1H-pyrazol-4-yl)benzamide]
4.9 nM | CC(C)(O)Cn1cc(-c2cnc(O[C@H]3CCN(C(=O)Cc4ccc(OC5CC5)cn4)C[C@H]3F)c(C(N)=O)c2)cn1 [Example 33, 2-{[(3R,4S)-1-{[5-(cyclopropyloxy)pyridin-2-yl]acetyl}-3-fluoropiperidin-4-yl]oxy}-5-[1-(2-hydroxy-2-methylpropyl)-1H-pyrazol-4-yl]pyridine-3-carboxamide]
4.16 nM | Cn1cc(-c2cc(C(N)=O)c(O[C@H]3CCN(C(=O)Cc4ccc(OC(F)(F)F)cc4)C[C@H]3F)nn2)cn1 [Example 156, 3-{[(3R,4S)-3-fluoro-1-{[4-(trifluoromethoxy)phenyl]acetyl}piperidin-4-yl]oxy}-6-(1-methyl-1H-pyrazol-4-yl)pyridazine-4-carboxamide]
4 nM | CC(C)(CO)n1cc(-c2ccc(OC3CCN(C(=O)Cc4ccc(OC(F)(F)F)cc4)CC3)c(C(N)=O)c2)cn1 [Example 62, 5-[1-(1-hydroxy-2-methylpropan-2-yl)-1H-pyrazol-4-yl]-2-[(1-{[4-(trifluoromethoxy)phenyl]acetyl}piperidin-4-yl)oxy]benzamide]
15.9 nM | CS(=O)(=O)Cn1cc(-c2cc(C(N)=O)c(O[C@H]3CCN(C(=O)Cc4ccc(OC5CC5)cc4)C[C@@H]3F)cn2)cn1 [Example 165, 5-{[(3S,4S)-1-{[4-(cyclopropyloxy)phenyl]acetyl}-3-fluoropiperidin-4-yl]oxy}-2-{1-[(methylsulfonyl)methyl]-1H-pyrazol-4-yl}pyridine-4-carboxamide]
6.9 nM | Cc1n[nH]c(C)c1-c1cnc(O[C@@H]2CCN(C(=O)Cc3ccc(OC4CC4)cn3)C[C@@H]2F)c(C(N)=O)c1 [Example 79, 2-{[(3S,4R)-1-{[5-(cyclopropyloxy)pyridin-2-yl]acetyl}-3-fluoropiperidin-4-yl]oxy}-5-(3,5-dimethyl-1H-pyrazol-4-yl)pyridine-3-carboxamide]
12.6 nM | Cc1nnc(-c2ccc(OC3CCN(C(=O)Cc4ccc(OC(F)(F)F)cc4)CC3)c(C(N)=O)c2)s1 [Example 147, 5-(5-methyl-1,3,4-thiadiazol-2-yl)-2-[(1-{[4-(trifluoromethoxy)phenyl]acetyl}piperidin-4-yl)oxy]benzamide]
7.24 nM | Cn1cc(-c2cc(C(N)=O)c(O[C@@H]3CCN(C(=O)Cc4ccc(OC(F)(F)F)cc4)C[C@@H]3F)nn2)cn1 [Example 157, 3-{[(3S,4R)-3-fluoro-1-{[4-(trifluoromethoxy)phenyl]acetyl}piperidin-4-yl]oxy}-6-(1-methyl-1H-pyrazol-4-yl)pyridazine-4-carboxamide]
5.9 nM | NC(=O)c1cc(-c2ccc(C(=O)O)cc2)cnc1OC1CCN(C(=O)Cc2ccc(OC(F)(F)F)cc2)CC1 [Example 95, 4-{5-carbamoyl-6-[(1-{[4-(trifluoromethoxy)phenyl]acetyl}piperidin-4-yl)oxy]pyridin-3-yl}benzoic acid]
15.1 nM | Cn1cc(-c2cnc(OC3CCN(C(=O)Cc4ccc(OC(F)(F)F)cc4)CC3)c(C(N)=O)c2)cn1 [Example 182, 5-(1-methyl-1H-pyrazol-4-yl)-2-[(1-{[4-(trifluoromethoxy)phenyl]acetyl}piperidin-4-yl)oxy]pyridine-3-carboxamide]
4.2 nM | NC(=O)c1cc(-c2ccn(CCO)n2)ccc1OC1CCN(C(=O)Cc2ccc(OC(F)(F)F)cc2)CC1 [Example 90, 5-[1-(2-hydroxyethyl)-1H-pyrazol-3-yl]-2-[(1-{[4-{trifluoromethoxy)phenyl]acetyl}piperidin-4-yl)oxy]benzamide]
12.3 nM | NC(=O)c1cc(-c2cc[nH]n2)ccc1OC1CCN(C(=O)Cc2ccc(OC(F)(F)F)cc2)CC1 [Example 177, 5-(1H-pyrazol-3-yl)-2-[(1-{[4-(trifluoromethoxy)phenyl]acetyl}piperidin-4-yl)oxy]benzamide]
5.5 nM | NC(=O)c1cc(-c2cnn(CCO)c2)ccc1OC1CCN(C(=O)Cc2ccc(OC3CC3)cc2)CC1 [Example 130, 2-[(1-{[4-(cyclopropyloxy)phenyl]acetyl}piperidin-4-yl)oxy]-5-[1-(2-hydroxyethyl)-1H-pyrazol-4-yl]benzamide]
1.4 nM | NC(=O)c1cc(-c2cnn(C3CS(=O)(=O)C3)c2)cnc1O[C@@H]1CCN(C(=O)Cc2ccc(OC(F)(F)F)cc2)C[C@@H]1F [Example 23, 5-[1-(1,1-dioxidothietan-3-yl)-1H-pyrazol-4-yl]-2-{[(3S,4R)-3-fluoro-1-{[4-(trifluoromethoxy)phenyl]acetyl}piperidin-4-yl]oxy}pyridine-3-carboxamide]
1.1 nM | Cc1nc(-c2cnc(O[C@H]3CCN(C(=O)Cc4ccc(OC(F)(F)F)cc4)C[C@H]3F)c(C(N)=O)c2)c[nH]1 [Example 118, 2-{[(3R,4S)-3-fluoro-1-{[4-(trifluoromethoxy)phenyl]acetyl}piperidin-4-yl]oxy}-5-(2-methyl-1H-imidazol-4-yl)pyridine-3-carboxamide]
3.7 nM | Cn1cnc(-c2ccc(OC3CCN(C(=O)Cc4ccc(OC(F)(F)F)cc4)CC3(C)C)c(C(N)=O)c2)c1 (racemic) [Example 49, Racemic 2-((3,3-dimethyl-1-(2-(4-(trifluoromethoxy)phenyl)acetyl)piperidin-4-yl)oxy)-5-(1-methyl-1H-imidazol-4-yl)benzamide]
2.9 nM | CS(=O)(=O)Cn1cc(-c2cnc(O[C@@H]3CCN(C(=O)Cc4ccc(OC(F)(F)F)c(F)c4)C[C@@H]3F)c(C(N)=O)c2)cn1 [Example 24, 2-{[(3S,4R)-3-fluoro-1-{[3-fluoro-4-(trifluoromethoxy)phenyl]acetyl}pipertdin-4-yl]oxy}-5-{1-[(methylsulfonyl)methyl]-1H-pyrazol-4-yl}pyridine-3-carboxamide]

SMILES | IC50
Cn1cnc(-c2ccc(O[C@@H]3C[C@H]4CC[C@@H](C3)N4C(=O)Cc3ccc(OC(F)(F)F)cc3)c(C(N)=O)c2)c1 [Example 48, 5-(1-methyl-1H-imidazol-4-yl)-2-(((1R,3s,5S)-8-(2-(4-(trifluoromethoxy)phenyl)acetyl)-8-azabicyclo[3.2.1]octan-3-yl)oxy)benzamide] | 3.6 nM
